Results on 13 molecules are retold here after ChEMBL document CHEMBL3244240, “Antitubercular 2,8-bis(alkylaminomethyl)phenazines” (1978).

≈ marks a conversion by molar mass, not a printed value. Calls of active or inactive are those of the source.

Assay [1] relates to Mycolicibacterium smegmatis. In words: Antitubercular against Mycobacterium smegmatis ATCC 607 by agar dilution method. It counts as functional. (In agar dilution, organisms are placed on agar that contains the substance at set levels.)
The test system of assay [2] is Mycobacterium tuberculosis. In words: Antitubercular against Mycobacterium tuberculosis H37Rv infected in mouse assessed as host survival at 2.5 mg/kg/day administered with food for 19 days measured on day 30. The format is functional, organism-based.
For assay [3], the system named is Mycobacterium tuberculosis. In words: Antitubercular against Mycobacterium tuberculosis H37Rv infected in mouse assessed as host survival at 9 mg/kg/day administered with food for 19 days measured on day 30. It counts as functional, organism-based.
Assay [4] has as its system Mycobacterium tuberculosis. Description: Antitubercular against Mycobacterium tuberculosis H37Rv infected in mouse assessed as host survival at 75 mg/kg/day administered with food for 19 days measured on day 30. It counts as functional, organism-based.
In assay [5] the test system is Mycobacterium tuberculosis. Description: Antitubercular against Mycobacterium tuberculosis H37Rv infected in mouse assessed as host survival at 19 mg/kg/day administered with food for 19 days measured on day 30. The format is functional, organism-based.
The test system of assay [6] is Mycobacterium tuberculosis. Description: Antitubercular against Mycobacterium tuberculosis H37Rv infected in mouse assessed as host survival at 5 mg/kg/day administered with food for 19 days measured on day 30. It counts as functional, organism-based.

Molecule `Cl.c1ccc(CN2CCN(Cc3ccc4nc5ccc(CN6CCN(Cc7ccccc7)CC6)cc5nc4c3)CC2)cc1` came in with an MIC in assay [1] of 10 µg/mL.

In the case of `CCCCCCN(CCCCCC)Cc1ccc2nc3ccc(CN(CCCCCC)CCCCCC)cc3nc2c1`, it took 62 µg/mL (≈ 108 µM) to inhibit growth in assay [1] (MIC).

On to `CCCCCCCCN(CCCCCCCC)Cc1ccc2nc3ccc(CN(CCCCCCCC)CCCCCCCC)cc3nc2c1`, for which the MIC in assay [1] stood at 62 µg/mL (≈ 90.2 µM).

Consider `CC1CN(Cc2ccc3nc4ccc(CN5CC(C)NC(C)C5)cc4nc3c2)CC(C)N1.Cl` (stereo not drawn), for which, in assay [1], 62 µg/mL was the least that counted as inhibitory (MIC).

The molecule `CCCCCCCN(CCCCCCC)Cc1ccc2nc3ccc(CN(CCCCCCC)CCCCCCC)cc3nc2c1` came in with an MIC in assay [1] of 62 µg/mL (≈ 98.2 µM).

For `CN1CCN(Cc2ccc3nc4ccc(CN5CCN(C)CC5)cc4nc3c2)CC1`, it took 62 µg/mL (≈ 153 µM) to inhibit growth in assay [1] (MIC).

`CCN(CC)Cc1ccc2nc3ccc(CN(CC)CC)cc3nc2c1.Cl`: in assay [1], the MIC came to 5 µg/mL. Compared with the last molecule, the MIC is about 12-fold lower.

Take `CCCCCN(CCCCC)Cc1ccc2nc3ccc(CN(CCCCC)CCCCC)cc3nc2c1`: the MIC in assay [1] amounted to 62 µg/mL (≈ 119 µM).

In assay [1], `c1cc2nc3ccc(CN4CCCCC4)cc3nc2cc1CN1CCCCC1` showed an MIC of 62 µg/mL (≈ 166 µM).

Consider `Cl.c1ccc(N2CCN(Cc3ccc4nc5ccc(CN6CCN(c7ccccn7)CC6)cc5nc4c3)CC2)nc1`, for which the minimal inhibitory concentration (MIC) in assay [1] was 125 µg/mL. This MIC is about 2-fold higher than that of the molecule before.

With `NNC(=O)c1ccncc1` [ISONIAZID], the outcome in assay [2] was inactive. Further, in assay [3], the result was Active. In assay [1], this molecule had an MIC of 0.05 µg/mL (≈ 0.365 µM).

`CC[C@@H](CO)NCCN[C@@H](CC)CO` [ETHAMBUTOL] came in with a minimum inhibitory concentration (MIC) in assay [1] of 0.5 µg/mL (≈ 2.45 µM).

Take `CCCCN(CCCC)Cc1ccc2nc3ccc(CN(CCCC)CCCC)cc3nc2c1.Cl`: the outcome in assay [4] was Active. Inhibition of growth in assay [1] (MIC) required 2.5 µg/mL. Moreover, the outcome in assay [5] and in assay [6] was inactive.

Broadly, the MIC is the smallest concentration in the dilution series that meets the test's criterion for growth inhibition. A low value points to a more susceptible organism.
